Test results: US11597721B2, “Heterocyclic compounds comprising pyridine useful as modulators of IL-12, IL-23 and/or IFNα responses” (BRISTOL-MYERS SQUIBB COMPANY, priority 2018, dated 2023)
Like-named read-outs stand apart in the source and are kept apart here.

Tested on: IFNα-Induced STAT Phosphorylation
Assay: IFNα-Induced STAT Phosphorylation in Human Whole Blood
Format: cell-based
Conditions: 1 h compound incubation, 1000 U/mL recombinant human IFNα A/D for 15 min, pSTAT5 in CD3 positive population, read-out: LE Human WB IFNα-Induced Stat Phosph. (IC50)
From the text: IFNα-Induced STAT Phosphorylation in Human Whole Blood
The amount of pSTAT5 expression was quantitated by median fluorescence intensity after gating on the CD3 positive population.

`[2H]C([2H])([2H])NC(=O)c1nnc(Nc2ccccn2)cc1Nc1nccc(-c2ncn(C)n2)c1OC` [Example 2, 4-{[3-methoxy-4-(1-methyl-1H-1,2,4-triazol-3-yl)pyridin-2-yl]amino}-N—(^2H3)methyl-6-[(pyridin-2-yl)amino]pyridazine-3-carboxamide] gave an IC50 of 50 nM.

Compound `[2H]C([2H])([2H])NC(=O)c1nnc(Nc2cc(C#N)ccn2)cc1Nc1nccc(-c2ncn(C)n2)c1OC` [Example 13, 6-[(4-cyanopyridin-2-yl)amino]-4-{[3-methoxy-4-(1-methyl-1H-1,2,4-triazol-3-yl)pyridin-2-yl]amino}-N—(^2H3)methylpyridazine-3-carboxamide] has an IC50 (Homo sapiens) greater than 10000 nM.

`[2H]C([2H])([2H])NC(=O)c1nnc(Nc2cc(C)c(F)cn2)cc1Nc1nccc(-c2ncn(C)n2)c1OC` [Example 16, 6-[(5-fluoro-4-methylpyridin-2-yl)amino]-4-{[3-methoxy-4-(1-methyl-1H-1,2,4-triazol-3-yl)pyridin-2-yl]amino}-N—(^2H3)methylpyridazine-3-carboxamide] showed an IC50 (Homo sapiens) of 120 nM.

`[2H]C([2H])([2H])NC(=O)c1nnc(Nc2cc(CC)ccn2)cc1Nc1nccc(-c2ncn(C)n2)c1OC` [Example 17, 6-[(4-ethylpyridin-2-yl)amino]-4-{[3-methoxy-4-(1-methyl-1H-1,2,4-triazol-3-yl)pyridin-2-yl]amino}-N—(^2H3)methylpyridazine-3-carboxamide] gave an IC50 (Homo sapiens) of 50 nM.

Compound `[2H]C([2H])([2H])NC(=O)c1nnc(Nc2cc(F)ccn2)cc1Nc1nccc(-c2ncn(C)n2)c1OC` [Example 19, 6-[(4-fluoropyridin-2-yl)amino]-4-{[3-methoxy-4-(1-methyl-1H-1,2,4-triazol-3-yl)pyridin-2-yl]amino}-N—(^2H3)methylpyridazine-3-carboxamide] has an IC50 (Homo sapiens) of 30 nM.

`[2H]C([2H])([2H])NC(=O)c1nnc(Nc2nnc(C)s2)cc1Nc1nccc(-c2ncn(C)n2)c1OC` [Example 20, 4-{[3-methoxy-4-(1-methyl-1H-1,2,4-triazol-3-yl)pyridin-2-yl]amino}-N—(^2H3)methyl-6-[(5-methyl-1,3,4-thiadiazol-2-yl)amino]pyridazine-3-carboxamide] showed an IC50 (Homo sapiens) of 1510 nM.

`[2H]C([2H])([2H])NC(=O)c1nnc(Nc2cc(Cl)ccn2)cc1Nc1nccc(-c2ncn(C)n2)c1OC` [Example 21, 6-[(4-chloropyridin-2-yl)amino]-4-{[3-methoxy-4-(1-methyl-1H-1,2,4-triazol-3-yl)pyridin-2-yl]amino}-N—(^2H3)methylpyridazine-3-carboxamide] gave an IC50 (Homo sapiens) of 30 nM.

`[2H]C([2H])([2H])NC(=O)c1nnc(Nc2ccc(-n3ccccc3=O)cn2)cc1Nc1nccc(-c2ncn(C)n2)c1OC` [Example 24, 4-{[3-methoxy-4-(1-methyl-1H-1,2,4-triazol-3-yl)pyridin-2-yl]amino}-N—(^2H3)methyl-6-({2-oxo-2H-[1,3′-bipyridine]-6′-yl}amino)pyridazine-3-carboxamide] gave an IC50 (Homo sapiens) of 30 nM.

`[2H]C([2H])([2H])NC(=O)c1nnc(Nc2cc(C(C)(C)O)ccn2)cc1Nc1nccc(-c2ncn(C)n2)c1OC` [Example 25, 6-{[4-(2-hydroxypropan-2-yl)pyridin-2-yl]amino}-4-{[3-methoxy-4-(1-methyl-1H-1,2,4-triazol-3-yl)pyridin-2-yl]amino}-N—(^2H3)methylpyridazine-3-carboxamide] showed an IC50 (Homo sapiens) of 50 nM.

`[2H]C([2H])([2H])NC(=O)c1nnc(Nc2ccc(-n3cccc(C(F)(F)F)c3=O)cn2)cc1Nc1nccc(-c2ncn(C)n2)c1OC` [Example 26, 4-{[3-methoxy-4-(1-methyl-1H-1,2,4-triazol-3-yl)pyridin-2-yl]amino}-N—(^2H3)methyl-6-{[2-oxo-3-(trifluoromethyl)-2H-[1,3′-bipyridine]-6-yl]amino}pyridazine-3-carboxamide] was tested, and the IC50 (Homo sapiens) was 30 nM.

`[2H]C([2H])([2H])NC(=O)c1nnc(Nc2ccccn2)cc1Nc1nccc(-c2ncn(C)n2)c1OC` [Example 28] showed an IC50 of 270 nM.

Compound `[2H]C([2H])([2H])NC(=O)c1nnc(Nc2cc(C(F)(F)F)ccn2)cc1Nc1nccc(-c2ncn(C)n2)c1OC` [Example 32, 4-{[3-methoxy-4-(1-methyl-1H-1,2,4-triazol-3-yl)pyridin-2-yl]amino}-N—(^2H3)methyl-6-{[4-(trifluoromethyl)pyridin-2-yl]amino}pyridazine-3-carboxamide] has an IC50 (Homo sapiens) of 90 nM.

In the case of `[2H]C([2H])([2H])NC(=O)c1nnc(Nc2ccc(C(C)(C)O)cn2)cc1Nc1nccc(-c2ncn(C)n2)c1OC` [Example 33, 6-{[5-(2-hydroxypropan-2-yl)pyridin-2-yl]amino}-4-{[3-methoxy-4-(1-methyl-1H-1,2,4-triazol-3-yl)pyridin-2-yl]amino}-N—(^2H3)methylpyridazine-3-carboxamide], the IC50 (Homo sapiens) is reported as 20 nM.

`[2H]C([2H])([2H])NC(=O)c1nnc(Nc2ccncc2)cc1Nc1nccc(-c2ncn(C)n2)c1OC` [Example 35, 4-{[3-methoxy-4-(1-methyl-1H-1,2,4-triazol-3-yl)pyridin-2-yl]amino}-N—(^2H3)methyl-6-[(pyridin-4-yl)amino]pyridazine-3-carboxamide] was tested, and the IC50 (Homo sapiens) was 200 nM.

`[2H]C([2H])([2H])NC(=O)c1nnc(Nc2ccc(OCC)nn2)cc1Nc1nccc(-c2ncn(C)n2)c1OC` [Example 36, 6-[(6-ethoxypyridazin-3-yl)amino]-4-{[3-methoxy-4-(1-methyl-1H-1,2,4-triazol-3-yl)pyridin-2-yl]amino}-N—(^2H3)methylpyridazine-3-carboxamide] showed an IC50 (Homo sapiens) of 30 nM.

Compound `[2H]C([2H])([2H])NC(=O)c1nnc(Nc2ccc(N3CCN(C(C)(C)C)C3=O)cn2)cc1Nc1nccc(-c2ncn(C)n2)c1OC` [Example 37, 6-{[5-(3-tert-butyl-2-oxoimidazolidin-1-yl)pyridin-2-yl]amino}-4-{[3-methoxy-4-(1-methyl-1H-1,2,4-triazol-3-yl)pyridin-2-yl]amino}-N—(^2H3)methylpyridazine-3-carboxamide] has an IC50 (Homo sapiens) of 130 nM.

`[2H]C([2H])([2H])NC(=O)c1nnc(Nc2ccc(N3CCOCC3)cn2)cc1Nc1nccc(-c2ncn(C)n2)c1OC` [Example 38, 4-{[3-methoxy-4-(1-methyl-1H-1,2,4-triazol-3-yl)pyridin-2-yl]amino}-N—(^2H3)methyl-6-{[5-(morpholin-4-yl)pyridin-2-yl]amino}pyridazine-3-carboxamide] showed an IC50 (Homo sapiens) of 10 nM.

`[2H]C([2H])([2H])NC(=O)c1nnc(Nc2cc(F)c(F)cn2)cc1Nc1nccc(-c2ncn(C)n2)c1OC` [Example 39, 6-[(4,5-difluoropyridin-2-yl)amino]-4-{[3-methoxy-4-(1-methyl-1H-1,2,4-triazol-3-yl)pyridin-2-yl]amino}-N—(^2H3)methylpyridazine-3-carboxamide] gave an IC50 (Homo sapiens) of 220 nM.

`[2H]C([2H])([2H])NC(=O)c1cnc(NC(=O)C2CC2)cc1Nc1nccc(-c2noc(C)n2)c1OC` [Example 41, 6-cyclopropaneamido-4-{[3-methoxy-4-(5-methyl-1,2,4-oxadiazol-3-yl)pyridin-2-yl]amino}-N—(^2H3)methylpyridine-3-carboxamide] showed an IC50 (Homo sapiens) of 30 nM.

`[2H]C([2H])([2H])NC(=O)c1nnc(Nc2cc(C)ccn2)cc1Nc1nccc(-c2noc(CN3CCOCC3)n2)c1OC` [Example 42, 4-((3-methoxy-4-(5-(morpholinomethyl)-1,2,4-oxadiazol-3-yl)pyridin-2-yl)amino)-N-trideuteromethyl-6-((4-methylpyridin-2-yl)amino)pyridazine-3-carboxamide] was tested, and the IC50 (Homo sapiens) was 580 nM.

With `[2H]C([2H])([2H])NC(=O)c1cnc(NC(=O)CC)cc1Nc1nccc(-c2noc(C)n2)c1OC` [Example 43, 4-{[3-methoxy-4-(5-methyl-1,2,4-oxadiazol-3-yl)pyridin-2-yl]amino}-N—(^2H3)methy-6-propanamidopyridine-3-carboxamide] the IC50 (Homo sapiens) was 120 nM.

For `[2H]C([2H])([2H])NC(=O)c1cnc(NC(=O)CC2CC2)cc1Nc1nccc(-c2noc(C)n2)c1OC` [Example 44, 6-(2-cyclopropylacetamido)-4-{[3-methoxy-4-(5-methyl-1,2,4-oxadiazol-3-yl)pyridin-2-yl]amino}-N—(^2H3)methylpyridine-3-carboxamide], the IC50 (Homo sapiens) was 90 nM.

With `[2H]C([2H])([2H])NC(=O)c1cnc(NC(=O)C2CC2)cc1Nc1nccc(-c2noc(COC)n2)c1OC` [Example 45, 6-cyclopropaneamido-4-({3-methoxy-4-[5-(methoxymethyl)-1,2,4-oxadiazol-3-yl]pyridin-2-yl}amino)-N—(^2H3)methylpyridine-3-carboxamide] the IC50 (Homo sapiens) was 10 nM.

Work on `[2H]C([2H])([2H])NC(=O)c1cnc(NC(=O)C2CC2)cc1Nc1nccc(-c2noc(COCC)n2)c1OC` [Example 46, 6-cyclopropaneamido-4-({4-[5-(ethoxymethyl)-1,2,4-oxadiazol-3-yl]-3-methoxypyridin-2-yl}amino)-N—(^2H3)methylpyridine-3-carboxamide] yielded an IC50 (Homo sapiens) of 30 nM.

`[2H]C([2H])([2H])NC(=O)c1cnc(NC(=O)C2CC2)cc1Nc1nccc(-c2noc(COC(C)C)n2)c1OC` [Example 47, 6-cyclopropaneamido-4-[(3-methoxy-4-{5-[(propan-2-yloxy)methyl]-1,2,4-oxadiazol-3-yl}pyridin-2-yl)amino]-N—(^2H3)methylpyridine-3-carboxamide] showed an IC50 (Homo sapiens) of 20 nM.

Work on `[2H]C([2H])([2H])NC(=O)c1cnc(NC(=O)CC)cc1Nc1nccc(-c2noc(COC)n2)c1OC` [Example 48, 4-({3-methoxy-4-[5-(methoxymethyl)-1,2,4-oxadiazol-3-yl]pyridin-2-yl}amino)-N—(^2H3)methyl-6-propanamidopyridine-3-carboxamide] yielded an IC50 (Homo sapiens) of 200 nM.

Compound `[2H]C([2H])([2H])NC(=O)c1nnc(NC(=O)C2CC2)cc1Nc1nccc(-c2noc(COC)n2)c1OC` [Example 50, 6-cyclopropaneamido-4-({3-methoxy-4-[5-(methoxymethyl)-1,2,4-oxadiazol-3-yl]pyridin-2-yl}amino)-N—(^2H3)methylpyridazine-3-carboxamide] has an IC50 (Homo sapiens) of 40 nM.
